Results reported in patent US20080045596A1, “Ep2 Receptor Agonists” (priority 2003, published 2008).
Where two headings read alike, the source gives them in different places.

Columns and labels:
human myometrium = experiment: Electrical field stimulation (EFS) induced contractions of human myometrial strips
Protocol: The following describes an in vitro functional assay, using human myometrial smooth muscle, to determine the affinity of the test compounds at the EP2 receptor in human tissues.
Sections of human myometrium were prepared from samples of surgically removed uterus longitudinal myometrial muscle strips (2 mm wide by 10 mm long) were then cut and suspended between stainless steel hooks in organ chambers containing oxygenated (95% O2/5% CO2) Krebs solution at 37° C. The composition of the Krebs solution was as follows: NaCl (118.2 mM), KCl (4.69 mM), MgSO4.7H2O (1.18 mM), KH2PO4 (1.19 mM), glucose (11.1 mM), NaHCO3 (25.0 mM), CaCl2.6H2O (2.5 mM), indomethacin 3×10^−6M.
Tissues were placed under a tension equivalent to 25 mN and left overnight at room temperature. The following day the tissues were maintained at 37° C., washed and placed under a tension of 15 mN then allowed to equilibrate for a period of at least 30 minutes. Responses were recorded using isometric transducers coupled to an Apple Macintosh computer via a MacLab interface. After 60 minutes, the muscle sections of the human myometrium were stimulated electrically (15 ms pulse width, for 10 s every 100 s at 15V and 0.5-40 Hz) using parallel platinum wire electrodes and a Multistim D330 pulse stimulator. Upon electrical stimulation, the strips of human myometrial smooth muscle responded with a rapid contraction. Once the response to electrical stimulation had stabilised (stimulated responses differed by no more than 10%), the strips were exposed to increasing concentrations of test compounds (1×10^−7 to 1×10^−4M, incubated for at least 15 minutes at each concentration). At the end of the experiment, application of sodium nitroprusside (SNP, a nitric oxide donor that causes smooth muscle relaxation) (1×10^−4M) was used to produce a standard relaxatory response. To determine the affinity of the compounds, the concentration of test compound required to produce half-maximal effects (EC50) was calculated, as was the maximum response (calculated as a percentage of the standard response produced with SNP).

[1] = system: interferon gamma release by lymphocytes; experiment: Lymphocyte assay: interferon gamma release; assay type: cell-based, human; settings: FIG. 11, two donors
Source text: Lymphocytes are mononuclear leukocytes, which participate in specific immune responses to foreign antigens and in the manifestation of auto-immune diseases. T lymphocytes produce IL-2, a key factor for lymphocyte activation and proliferation, in response to antigen stimulation via the CD3-T cell receptor complex and the pathway involved in this response is the NF-AT. […] A lymphocyte assay was designed to model this response and to determine the effect of test compound on IL-2 production by anti-CD3-stimulated T cells isolated from peripheral blood. This assay uses a sub-optimal dose of an anti-CD3 monoclonal antibody (OKT3, 25 ng/ml) immobilised to a 96-well plate to stimulate a T cell response. The level of IL-2 released into the cell culture supernatants was quantified using a standard sandwich ELISA. Similarly, other cytokines such as TNFα and IFN-γ can also be measured in the same assay. […]
Lymphocytes were then seeded to a 96-well plate pre-coated with anti-CD3 monoclonal antibody (OKT3) at 25 ng/ml and immediately, the test compounds (Peak 1, mixture 1 acid; Peak 1, mixture 2 acid; AH-13205 racemate; PGE2) in appropriate dilutions were added to corresponding wells according to the experimental design. […] The levels of IFN-γ was assessed by using the ProteoPlex 16 well human cytokine array assay kit according to the manufacturer's instruction.

human EP2 receptor [2] = target: T1, human EP2 receptor (Homo sapiens, UniProt P43116); experiment: Radioligand ([3H]PGE2) competition displacement binding, human EP2 receptor membranes; settings: for pKi EP2: human EP2, [3H]PGE2 displacement, Cheng-Prusoff, mean of 4 experiments
T1 construct: expressed in transfected cells; host or cells: HEK cells (HEK-EP2)
Protocol: (§1) Membranes were prepared from cells stably transfected with human EP receptor cDNA. In brief, cells were cultured to confluency, scraped from culture flasks, and centrifuged (800 g, 8 minutes, 4° C.). Cells were twice washed in ice cold homogenisation buffer containing 10 mM Tris-HCl, 1 mM EDTA.2Na, 250 mM sucrose, 1 mM PMSF, 0.3 mM indomethacin, pH 7.4, homogenised and re-centrifuged as before. The supernatant was stored on ice and pellets re-homogenised and re-spun. Supernatants were pooled and centrifuged at 40000 g, 10 minutes, 4° C. Resultant membrane pellets were stored at −80° C. until use.
(§2) For assay, membranes expressing human EP4, EP3, EP2 or EP1 receptors were incubated in Millipore (MHVBN45) plates containing assay buffer, radiolabelled [^3H]PGE2 and 0.1 to 10 000 nM concentrations of compounds. Incubations were performed at suitable temperatures and for suitable times to allow equilibrium to be reached. Non-specific binding was determined in the presence of 10 uM PGE2. Bound and free radiolabel was separated by vacuum manifold filtration using appropriate wash buffers, and bound radiolabel was determined by scintillation counting. Constituents of each of the buffers are included in table 4 below.
(§3) The affinity or pKi of each compound for each receptor was calculated from the concentration causing 50% radioligand displacement (IC50) using the Cheng-Prusoff equation: […]
(§4) This approach follows that set out in Kenakin, T. P., Pharmacologic analysis of drug receptor interaction. Raven Press, New York, 2nd edition.

human EP2 receptor [3] = target: T1, human EP2 receptor; experiment: cAMP production in HEK cells stably expressing the human EP2 receptor; assay type: cell-based; settings: 15 min stimulation, 4 experiments, logarithm of EC50
Protocol: The following describes an in vitro assay to determine the effect of compounds on cyclase production, that is, to determine their functional efficacy at the EP2 receptor.
HEK cells stably expressing the human EP2 receptor were used for these assays. HEK-EP2 cells were cultured in 96-well, poly-L-lysine coated plates at a density of 50,000 cells/well, and grown to confluence in humidified […]/5% CO2 at 37° C. Culture medium was DMEM supplemented with 10% foetal bovine serum, 100 U/ml penicillin, […] streptomycin, 2.5 μg/ml fungizone, 2 mM glutamine, 250 μg/ml geneticin and 200 μg/ml zeocin.
On reaching confluence, culture media was rinsed off using DMEM with no additions, before 175 μl assay buffer (DMEM containing 1 mM 3-isobutyl-1-methylxanthine and 3 μM indomethacin) was added to each well. This was allowed to incubate for 1 hr before the cells were stimulated with the test compounds (in triplicate) at final concentrations of 10^−9M to 10^−5M for 15 minutes. The assay was terminated by the addition of 25 μl 1M hydrochloric acid. Plates were then frozen for a minimum of 12 hours or until required for radioligand displacement assay.
Plates were thawed quickly at 37° C., and neutralised with 25 μl 1M sodium hydroxide. 30 μl of supernatant was transferred to 96-well Millipore (MAFNOB) plates coated with 0.1% Polyethylenimine. These supernatants were diluted by addition of 90 μl cAMP assay buffer (50 mM Tris, 5 mM EDTA, pH 7.0). A cAMP standard curve (10^−11M to 10^−5M) was constructed. 15 μl of 3′:5′-cAMP-dependent protein kinase (final concentration 8 μg/well), and 15 μl [^3H]-cAMP (final concentration 2 nM/well) were added to each well.
Plates were incubated on ice for 2 hours, before bound and free radiolabel were separated by vacuum filtration harvesting on the Millipore manifold, using ice cold water as the termination buffer. […]
Radioactivity was determined using the Microbeta Trilux scintillation counter. cAMP accumulation was determined from the standard curve, and the values plotted as pmoles cAMP/well.

[4] = system: TNFα production by LPS-stimulated monocytes; experiment: Monocyte assay: LPS-induced TNFα secretion; assay type: cell-based, human; settings: Table 11/FIG. 14, mean of three donors, LPS 100 ng/ml, 24 h
Source text: Monocytes are peripheral mononuclear phagocytes that participate in inflammatory responses. TNFα production by monocytes plays an important role in inflammatory responses and can cause considerable tissue damage if the level remained unchecked. Inhibition of TNFα secretion by activated monocytes may provide an attractive therapy for the treatment of inflammatory conditions.
A 96 well in vitro assay was established to determine the effects of test compounds on LPS-induced TNFα secretion by human peripheral blood monocytes. The level of TNFα in assay supernatants was quantified using a standard sandwich ELISA.
Human peripheral blood mononuclear cells from healthy volunteers were isolated from whole blood by Ficoll-Hypaque density centrifugation and adherence to plastic. The non-adherent lymphocyte fraction was used to set up the lymphocyte assay and the adherent monocytes were then recovered by scraping and subsequently used in the monocyte assay.
For the monocyte assay, the cells were plated onto 96-well plates and pre-treated for 1 hour at 37° C./5% CO2 with the test compound (Peak 1, mixture 1 acid; Peak 1, mixture 2 acid; AH-13205 racemate), followed by the addition of LPS (100 ng/ml) to initiate the reaction. The plate was incubated for 24 hours and supernatants were recovered for the measurement of TNFα production by ELISA.

human EP4 receptor = target: T2, human EP4 receptor (Homo sapiens, UniProt P35408); experiment: Radioligand ([3H]PGE2) competition displacement binding, human EP4 receptor membranes; settings: human EP4, [3H]PGE2 displacement
T2 construct: expressed in transfected cells
Protocol: as §1, §2, §3, §4

human EP3 receptor = target: T3, human EP3 receptor (Homo sapiens, UniProt P43115); experiment: Radioligand ([3H]PGE2) competition displacement binding, human EP3 receptor membranes; settings: human EP3, [3H]PGE2 displacement
T3 construct: expressed in transfected cells
T3 sequence (P43115 1-390): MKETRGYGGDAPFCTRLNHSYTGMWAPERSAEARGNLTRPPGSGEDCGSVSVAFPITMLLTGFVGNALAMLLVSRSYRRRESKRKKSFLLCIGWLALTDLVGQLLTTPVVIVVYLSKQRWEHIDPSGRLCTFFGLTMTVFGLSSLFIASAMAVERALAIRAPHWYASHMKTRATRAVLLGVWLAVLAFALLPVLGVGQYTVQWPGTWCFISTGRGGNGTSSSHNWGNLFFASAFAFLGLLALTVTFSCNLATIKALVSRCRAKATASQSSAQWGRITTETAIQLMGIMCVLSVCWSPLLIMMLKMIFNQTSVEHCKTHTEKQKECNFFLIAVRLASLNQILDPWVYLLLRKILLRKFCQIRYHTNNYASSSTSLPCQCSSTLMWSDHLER
Protocol: as §1, §2, §3, §4

T1 sequence (P43116 whole entry): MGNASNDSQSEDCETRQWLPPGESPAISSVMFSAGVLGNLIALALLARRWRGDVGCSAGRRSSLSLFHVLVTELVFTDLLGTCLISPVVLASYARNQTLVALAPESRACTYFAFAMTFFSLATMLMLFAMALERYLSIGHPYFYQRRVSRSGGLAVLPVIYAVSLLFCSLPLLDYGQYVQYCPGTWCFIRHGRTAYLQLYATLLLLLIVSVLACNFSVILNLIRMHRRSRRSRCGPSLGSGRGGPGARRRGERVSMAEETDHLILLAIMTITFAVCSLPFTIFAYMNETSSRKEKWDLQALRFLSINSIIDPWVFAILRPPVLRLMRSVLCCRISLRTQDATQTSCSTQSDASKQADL
T2 sequence (P35408 whole entry): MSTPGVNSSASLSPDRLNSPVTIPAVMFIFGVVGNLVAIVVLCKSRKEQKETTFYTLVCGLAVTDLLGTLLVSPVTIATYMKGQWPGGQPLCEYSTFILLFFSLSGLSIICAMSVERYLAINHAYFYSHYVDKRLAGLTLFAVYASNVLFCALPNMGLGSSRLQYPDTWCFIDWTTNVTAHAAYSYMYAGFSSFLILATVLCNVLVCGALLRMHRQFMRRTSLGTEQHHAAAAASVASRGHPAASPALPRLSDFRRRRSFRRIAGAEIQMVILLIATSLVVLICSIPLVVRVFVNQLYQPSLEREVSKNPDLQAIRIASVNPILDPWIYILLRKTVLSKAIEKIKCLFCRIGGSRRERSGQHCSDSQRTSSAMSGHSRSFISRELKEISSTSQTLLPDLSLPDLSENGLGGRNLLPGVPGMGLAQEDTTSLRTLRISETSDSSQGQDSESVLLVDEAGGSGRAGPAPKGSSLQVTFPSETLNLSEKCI

pKi EP2 (human EP2 receptor [2]) | Mean Log (EC50), cAMP production (human EP2 receptor [3]) | pKi EP4 (human EP4 receptor) | pKi EP3 (human EP3 receptor) | Structure (SMILES) | effect on EFS-evoked contractions (words) (human myometrium) | other results
– | – | – | – | CCCCCC(O)c1ccc(C2CCC(=O)C2CCCCCCC(=O)O)cc1 (racemic) [AH13205, (±)-trans-2-[4-(1-hydroxyhexyl)phenyl]-5-oxo-cyclopentaneheptanoic acid, reference compound] | concentration-dependent inhibition | effect on EFS-evoked contractions (words) (human myometrium; listed as AH-13205): inhibit electrically-induced contractions
– | – | – | – | CCCCC[C@H](O)c1ccc([C@H]2CCC(=O)[C@@H]2CCCCCCC(=O)O)cc1 (single isomer, unassigned) [Peak 1, Mixture 1 acid] | concentration-dependent inhibition | effect on interferon gamma release [1]: concentration-dependently inhibit interferon gamma release
6.9 | −7.25 | 5.1 | 4.8 | CCCCC[C@@H](O)c1ccc([C@H]2CCC(=O)[C@@H]2CCCCCCC(=O)O)cc1 (single isomer, unassigned; peak 1) [Peak 1, Mixture 2 acid] | concentration-dependent inhibition | selectivity for EP2 among the stereoisomers (human EP2 receptor [2]; from Table 5 pKi values, EP2 versus other EP receptors): most selective; Mean Log (EC50), inhibition of TNFα production by LPS-stimulated monocytes ([4]; logarithm of EC50): −5.172; EC50 ([4]; read-out: Mean EC50, inhibition of TNFα production by LPS-stimulated monocytes): 6.73 µM; maximum inhibition of EFS-induced contractions (human myometrium): 57±2%; pEC50, inhibition of EFS-evoked response (human myometrium; 1×10^-7 to 1×10^-4 M): 5.3±0.1
5.8 | −6.49 | 4.5 | 4.8 | CCCCC[C@H](O)c1ccc([C@@H]2CCC(=O)[C@H]2CCCCCCC(=O)O)cc1 (single isomer, unassigned; peak 2) [Peak 2, Mixture 1 acid] | – | –
6.3 | −6.39 | 4.8 | 4.7 | CCCCC[C@@H](O)c1ccc([C@@H]2CCC(=O)[C@H]2CCCCCCC(=O)O)cc1 (single isomer, unassigned; peak 2) [Peak 2, Mixture 2 acid] | – | –
– | – | – | – | CC(C)(C)NCC(O)c1cc(O)cc(O)c1 (centres unmarked) [terbutaline, reference compound] | no significant inhibitory effect | –
